Assay results: patent US10383867B2, “Quinoline derivatives and their use for treating endoplasmic reticulum stress-related diseases and disorders” (priority 2015, dated 2019)
pEC50: −log10 of the molar value.

What was measured:
[1] = tested on: HEK293 cells / N2a cells under ER stress; experiment: ER stress cell rescue assay (protection against thapsigargin- or hydrogen peroxide-induced cell-death); assay type: cell-based, human (HEK293), mouse (N2a); settings: cell rescue from induced ER stress; cell line of the EC50 not specified
Description: Protection against Thapsigargin (TG)-induced Cell-death. Human embryonic kidney (HEK293) cells were grown in Dulbecco's Modified Eagle's Medium (DMEM) with 10% FBS and 1% antibiotic antimycotic solution (ABAM). Mouse neuroblastoma (N2a) cells were grown in 1:1 DMIEM:OPTI-MEM® with 5% FBS and 1% ABAM. All cells were grown in 10% CO2 in a humidified environment of the incubator. Cells grown in 96-well plates were exposed to a test compound (20 μM) for 2 hrs before addition of thapsigargin (15 μM for HEK293 cells and 1 μM for N2a cells) to induce ER stress. After incubation in cell-culture incubator for 24 hrs, ALAMARBLUE® regent (10% v/v) was added to the wells. Fluorescence reading was taken 2 hrs after the addition of the ALAMARBLUE® regent. Cell-viability was calculated as a percentage of relative fluorescence unit (RFU) compared to control.
Protection against Hydrogen Peroxide-induced Cell-death. N2a cell grown in 96-well plates were exposed to a test compound (40 μM) for 2 hrs before addition of hydrogen peroxide (200 μM). After 40 min of incubation with hydrogen peroxide, ALAMARBLUE® regent (10% v/v) was added to the wells. Fluorescence reading was taken 2 hrs after the addition of the ALAMARBLUE® regent. Cell-viability was calculated as a percentage of relative fluorescence unit (RFU) compared to control.
The results are summarized in Table 1, where, for ER stress cell rescue ECso values, A represents a value smaller than 20 μM, B represents a value between 20 μM to 100 μM, C represents a value greater than 100 μM.

SERCA = experiment: Activation of SERCA (NADH-linked, enzyme-coupled ATPase assay); assay type: biochemical; settings: for Increase in Vmax at 10 μM: SERCA ATPase, compound at 10 μM; for pEC50: SR vesicles, concentration for 50% activation of the maximum Vmax
Description: Test compounds were characterized over a range of concentrations using an NADH-linked, enzyme-coupled ATPase assay. Each well contained […] of SR vesicles (optimized for skeletal or cardiac SR, respectively), 50 mM MOPS (pH 7.0), 100 mM KCl, 5 mM MgCl2, 1 mM EGTA, 0.2 mM NADH, 1 mM phosphoenol pyruvate, 5 IU pyruvate kinase, 5 IU lactate dehydrogenase, and […] A23187 (a calcium ionophore), and CaCl2 was added to set free [Ca^2+] to the specific values. The assay was started upon addition of ATP at a final concentration of 5 mM, and read in a SpectraMax Plus microplate spectrophotometer and the ATPase activities were fitted using the Hill function. ECso values were determined as the concentrations of the test compounds that were required for 50% activation of the maximum Vmax.
The biological results are summarized in Table 1, wherein, for SERCA ATPase EC50 values, A represents a value smaller than 20 μM, B represents a value between 20 μM to 100 μM, C represents a value greater than 100 μM; and for increases in Vmax at 10 μM, A′ represents an increase greater than 50%, B′ represents an increase between 20 to 50%, and C′ represents an increase no greater than 20%.

`Cc1ccc2cccc(/C=C/c3ccc(OC(C)C)cc3)c2n1` [A1, (E)-8-(Isopropoxystyryl)-2-methylquinoline] was tested, and the pEC50 [1] was > 4.70.

In the case of `Cc1ccc2cccc(-c3nc(-c4ccc(OC(C)C)cc4)no3)c2n1` [B1, 3-(4-Isopropoxyphenyl)-5-(2-methylquinolin-8-yl)-1,2,4-oxadiazole], the pEC50 [1] was > 4.70, the “Increase in Vmax at 10 μM” value (SERCA) was “B′ (B′ represents an increase between 20 to 50%)” and the pEC50 (SERCA) was > 4.70.

In the case of `Cc1ccc2cccc(-c3nc(-c4ccc(Br)s4)no3)c2n1` [B2, 3-(5-Bromothiophen-2-yl)-5-(2-methylquinolin-8-yl)-1,2,4-oxadiazole], the pEC50 [1] was > 4.70, the “Increase in Vmax at 10 μM” value (SERCA) was “B′ (B′ represents an increase between 20 to 50%)” and the pEC50 (SERCA) was > 4.70.

`Cc1ccc2cccc(NCc3ccc(OC(C)C)cc3)c2n1` [C1, N-((4-Isopropoxyphenyl)methyl)-2-methylquinolin-8-amine] was tested, and the pEC50 [1] was > 4.70, the “Increase in Vmax at 10 μM” value (SERCA) was “B′ (B′ represents an increase between 20 to 50%)” and the pEC50 (SERCA) was > 4.70.

With `Cc1ccc2cccc(NCc3cc(Br)cs3)c2n1` [C2, N-((4-Bromothiophen-2-yl)methyl)-2-methylquinolin-8-amine] the pEC50 [1] was > 4.70, the “Increase in Vmax at 10 μM” value (SERCA) was “B′ (B′ represents an increase between 20 to 50%)” and the pEC50 (SERCA) was > 4.70.

For `Cc1ccc2cccc(NCc3ccc(Br)s3)c2n1` [C3, N-((5-Bromothiophen-2-yl)methyl)-2-methylquinolin-8-amine], the pEC50 [1] was > 4.70, the “Increase in Vmax at 10 μM” value (SERCA) was “B′ (B′ represents an increase between 20 to 50%)” and the pEC50 (SERCA) was > 4.70.

With `Cc1ccc2cccc(NS(=O)(=O)c3ccc(OC(C)C)cc3)c2n1` [D1, N-(2-Methylquinolin-8-yl)-5-isopropoxyphenyl-2-sulfonamide] the pEC50 [1] was > 4.70, the “Increase in Vmax at 10 μM” value (SERCA) was “C′ (C′ represents an increase no greater than 20%)” and the pEC50 (SERCA) was > 4.70.

In the case of `Cc1ccc2cccc(NS(=O)(=O)c3cc(Br)cs3)c2n1` [D2, 4-Bromo-N-(2-methylquinolin-8-yl)thiophene-2-sulfonamide], the pEC50 [1] was > 4.70, the “Increase in Vmax at 10 μM” value (SERCA) was “B′ (B′ represents an increase between 20 to 50%)” and the pEC50 (SERCA) was > 4.70.

In the case of `Cc1ccc2cccc(NS(=O)(=O)c3ccc(Br)s3)c2n1` [D3, 5-Bromo-N-(2-methylquinolin-8-yl)thiophene-2-sulfonamide], the pEC50 [1] was > 4.70, the “Increase in Vmax at 10 μM” value (SERCA) was “B′ (B′ represents an increase between 20 to 50%)” and the pEC50 (SERCA) was > 4.70.
